Activity calls are given as the source filed them. The calls are words filed in the database; no cut-off is given here.

Data set [1] has as its target Delta-type opioid receptor (Rattus norvegicus, UniProt P33533). As to the kind of experiment: Displacement of [3H]-DPN from rat DOR expressed in EE-HEK293 cell membranes by liquid scintillation counting.
For the next data set, the species on record is Rattus norvegicus. In words: Selectivity index, ratio of Ki for rat DOR to Ki for rat MOR.
Data set [2] concerns the target T1, Kappa-type opioid receptor (Homo sapiens, UniProt P41145). In words: Displacement of [3H]-DPN from human KOR expressed in EE-HEK293 cell membranes by liquid scintillation counting.
Data set [3] is described as follows: Selectivity index, ratio of Ki for human KOR to Ki for rat MOR.
The target in data set [4] is Mu-type opioid receptor (Rattus norvegicus, UniProt P33535). In words: Displacement of [3H]-DPN from rat MOR expressed in EE-HEK293 cell membranes by liquid scintillation counting.
Sequence of Mu-type opioid receptor (Rattus norvegicus, UniProt P33535) (P33535 whole entry): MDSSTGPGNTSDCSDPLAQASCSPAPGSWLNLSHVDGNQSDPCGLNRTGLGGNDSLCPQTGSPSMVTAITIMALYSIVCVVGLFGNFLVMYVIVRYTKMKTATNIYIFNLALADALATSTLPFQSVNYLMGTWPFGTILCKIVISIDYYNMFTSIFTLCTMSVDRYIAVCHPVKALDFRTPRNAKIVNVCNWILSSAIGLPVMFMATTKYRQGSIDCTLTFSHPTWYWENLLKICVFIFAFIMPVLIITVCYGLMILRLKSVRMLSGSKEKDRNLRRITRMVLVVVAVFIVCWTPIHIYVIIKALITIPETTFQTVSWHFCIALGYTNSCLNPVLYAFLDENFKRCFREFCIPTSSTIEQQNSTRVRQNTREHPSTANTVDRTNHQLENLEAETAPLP
Data set [5] has as its target Delta-type opioid receptor (Mus musculus) (UniProt P32300). As to the kind of experiment: (§1) Agonist activity at DOR in CD1 mouse vas deferens assessed as inhibition of EFS-induced contractions incubated for 60 mins. In kind it is tissue-based.
Data set [6] concerns Mus musculus. As to the kind of experiment: Effect on basal tail flick latencies in Swiss […] mouse at 1 to 15 mg/kg, sc during 90 mins by tail flick test. In kind it is ADME, organism-based. To be noted: in vivo, 1.5 h.
For data set [7], the system named is Mus musculus. In words: Reduction in morphine-induced antinociceptive effect in sc dosed Swiss […] mouse assessed as tail flick latencies dosed 45 mins before 5 mg/kg, sc morphine injection by tail flick test. In kind it is ADME, organism-based. The note with it: in vivo, 0.75 h.
Data set [8] has as its target T2, Mu-type opioid receptor (Cavia porcellus, UniProt P97266). As to the kind of experiment: Antagonist activity at MOR in Dunkin-Hartley guinea pig ileum assessed as reduction in DAMGO-induced inhibition of EFS-induced contractions incubated for 60 mins. In kind it is tissue-based. To be noted: read-out: pA2 (converted).
Data set [9] has as its target T3, Delta-type opioid receptor (Mus musculus, UniProt P32300). As to the kind of experiment: Antagonist activity at DOR in CD1 mouse vas deferens assessed as reduction in DPDPE-induced inhibition of EFS-evoked contractions incubated for 60 mins. In kind it is tissue-based. The note with it: read-out: pA2 (converted).
In data set [10] the target is T1, Kappa-type opioid receptor. As to the kind of experiment: Activity at human KOR expressed in EE-HEK293 cells assessed as pEC50 for effect on (-)U50,488H-induced response (reference value: […] +/- […]). In kind it is cell-based.
The target of data set [11] is T3, Delta-type opioid receptor. Described as §1. In kind it is tissue-based.
Data set [12] concerns the target T2, Mu-type opioid receptor. In words: Agonist activity at MOR in Dunkin-Hartley guinea pig ileum assessed as inhibition of EFS-induced contractions incubated for 60 mins.

Sequence of Delta-type opioid receptor (Rattus norvegicus, UniProt P33533) (P33533 whole entry): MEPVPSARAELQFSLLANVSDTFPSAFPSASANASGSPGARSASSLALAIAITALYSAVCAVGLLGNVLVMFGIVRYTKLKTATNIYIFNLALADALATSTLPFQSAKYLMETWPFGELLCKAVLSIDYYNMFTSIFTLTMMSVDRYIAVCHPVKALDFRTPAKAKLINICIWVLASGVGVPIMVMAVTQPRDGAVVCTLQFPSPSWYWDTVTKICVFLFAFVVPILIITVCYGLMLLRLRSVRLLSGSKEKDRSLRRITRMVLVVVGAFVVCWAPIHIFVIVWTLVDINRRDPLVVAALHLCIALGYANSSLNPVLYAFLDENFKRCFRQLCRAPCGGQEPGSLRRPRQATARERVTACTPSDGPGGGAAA
T3 sequence (P32300 whole entry): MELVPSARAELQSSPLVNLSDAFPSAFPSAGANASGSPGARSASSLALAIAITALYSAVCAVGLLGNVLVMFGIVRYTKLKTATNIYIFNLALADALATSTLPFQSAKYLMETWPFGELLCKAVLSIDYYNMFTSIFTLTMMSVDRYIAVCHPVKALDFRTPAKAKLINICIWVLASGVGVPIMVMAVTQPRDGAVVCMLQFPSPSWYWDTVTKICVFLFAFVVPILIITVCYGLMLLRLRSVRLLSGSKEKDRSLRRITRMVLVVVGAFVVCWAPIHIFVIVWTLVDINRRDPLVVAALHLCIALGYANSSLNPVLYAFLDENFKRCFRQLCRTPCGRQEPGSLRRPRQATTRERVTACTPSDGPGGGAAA
T2 sequence (P97266 whole entry): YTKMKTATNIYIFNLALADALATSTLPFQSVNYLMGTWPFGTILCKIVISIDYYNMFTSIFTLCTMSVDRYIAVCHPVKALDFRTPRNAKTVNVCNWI
T1 sequence (P41145 whole entry): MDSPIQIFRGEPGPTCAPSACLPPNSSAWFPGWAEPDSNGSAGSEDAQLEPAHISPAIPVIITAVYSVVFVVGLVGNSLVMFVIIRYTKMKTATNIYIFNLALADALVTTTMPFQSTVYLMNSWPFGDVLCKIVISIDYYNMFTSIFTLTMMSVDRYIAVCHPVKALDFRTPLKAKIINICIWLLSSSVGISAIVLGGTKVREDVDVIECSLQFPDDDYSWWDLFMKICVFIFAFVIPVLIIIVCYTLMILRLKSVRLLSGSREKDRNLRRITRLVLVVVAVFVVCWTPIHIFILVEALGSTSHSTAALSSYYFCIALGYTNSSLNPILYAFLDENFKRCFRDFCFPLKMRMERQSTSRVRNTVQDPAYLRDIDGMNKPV
Sequence of Delta-type opioid receptor (Mus musculus) (P32300 whole entry): as the sequence (P32300 whole entry) above

As for `C[C@H]1[C@H]2Cc3ccc(O)cc3[C@]1(C)CCN2CCC(=O)Nc1cccc2ncccc12`, the Ki in data set [1] worked out at 310 nM; in data set [2], 1540 nM; on Mu-type opioid receptor [4], 3190 nM. Besides, the Ratio Ki came to 0.1 in the data set filed under Rattus norvegicus and 0.5 in [3].

In the case of `C[C@H]1[C@H]2Cc3ccc(O)cc3[C@]1(C)CCN2CCC(=O)Nc1cccc2ccccc12`, in data set [5], the result was inactive. The Activity entry in the data set with Mus musculus [6] is listed as “Non-toxic”; with Mus musculus [7], “Dose-dependent effect”. For the same compound, the figures for the Ki (in [1]; in data set [2]; on Mu-type opioid receptor [4]) were 210 nM, 800 nM and 38 nM, respectively. The Ratio Ki in the data set listed under Rattus norvegicus worked out at 5.5; in data set [3], 21.1. Also, the AD50 in the data set on Mus musculus [7] worked out at 2 mg/kg. In addition, the Kb at Mu-type opioid receptor [8] is 2.51 nM; in [9], 25.1 nM. For the same compound, in data set [10], the EC50 is 10000 nM.

In the case of `C[C@H]1[C@H]2Cc3ccc(O)cc3[C@]1(C)CCN2CCC(=O)Nc1cccc2cccnc12`, the Ki in data set [1] was found to be 540 nM; in data set [2] it was 230 nM; at Mu-type opioid receptor [4] it was 3410 nM. For the same compound, the figures for the Ratio Ki (in the data set filed under Rattus norvegicus; in data set [3]) were 0.16 and 0.07, respectively.

With `C[C@H]1[C@H]2Cc3ccc(O)cc3[C@]1(C)CCN2CCC(=O)Nc1ccc2ncccc2c1`, the Ki in data set [1] came out at 330 nM; in data set [2], 4400 nM; at Mu-type opioid receptor [4], 4560 nM. For the same compound, the figures for the Ratio Ki (in the data set listed under Rattus norvegicus; in data set [3]) were 0.07 and 1, respectively.

Take `C[C@H]1[C@H]2Cc3ccc(O)cc3[C@]1(C)CCN2CCC(=O)Nc1cnc2ccccc2c1`: the results for the Ki (in data set [1]; in data set [2]; at Mu-type opioid receptor [4]) were 740 nM, 6470 nM and 1190 nM, respectively. Further, the Ratio Ki was 0.62 in the data set filed under Rattus norvegicus and 5.4 in [3].

As to `C[C@H]1[C@H]2Cc3ccc(O)cc3[C@]1(C)CCN2CCC(=O)Nc1cccc2cnccc12`, the EC50 was 158000 nM in data set [11] and 20000 nM on Mu-type opioid receptor [12]. In addition, the figures for the Ki (in data set [1]; in [2]; at Mu-type opioid receptor [4]) were 180 nM, 2900 nM and 50 nM, respectively. Further, the Ratio Ki in the data set listed under Rattus norvegicus was determined as 3.6; in data set [3], 58.

On to `C[C@H]1[C@H]2Cc3ccc(O)cc3[C@]1(C)CCN2CCC(=O)Nc1ccccc1`, for which the result in data set [5] was inactive. Besides, the Ratio Ki in the data set filed under Rattus norvegicus came to 0.67; in data set [3] it was 153. Moreover, the Kb in data set [9] was 63.1 nM. Further, the EC50 at Mu-type opioid receptor [12] is 794 nM.

As for `C[C@@H](NC(=O)[C@@H](N)Cc1ccc(O)cc1)C(=O)NCC(=O)N(C)[C@@H](Cc1ccccc1)C(=O)NCCO` [DAMGO], on Mu-type opioid receptor [12], the EC50 is 158 nM.

The record behind these values is ChEMBL document CHEMBL3797063, “Evaluation of N-substituent structural variations in opioid receptor profile of LP1” (Bioorg Med Chem, 2016).
